The source of these data is US8969405B2, “Anticancer compounds and methods of making and using same” (St. Jude Children's Research Hospital, priority 2008, dated 2015).

For series [1], the system named is PC-3 prostate cancer cell line. Briefly: In vitro cytotoxicity analysis (XTT), 72-hour exposure. Type of series: cell-based. Particulars: Homo sapiens, PC3 cells. On the procedure: (§1) Briefly, cell lines were seeded at various cell densities depending on the cell type.
(§2) Tables 1-3 display cytotoxicity data for exemplary compounds following a 72-hour exposure.
On the technique in general: Tetrazolium assays rely on reduction of a dye to a coloured formazan, in cell work by metabolically active cells.

In series [2] the test system is JVM-2 mantle cell lymphoma cell line. The series is described as above. Type of series: cell-based. Particulars: Homo sapiens, JVM-2 cells. As to the method:
as §1, §2

Series [3] relates to WiDr colorectal cancer cell line. The series is described as above. The format is cell-based. Particulars: Homo sapiens, read-out: Cytotoxicity IC50. On the procedure: as §1
Series [4] has as its system JeKo-1 mantle cell lymphoma cell line. The series is described as above. Type of series: cell-based. Particulars: Homo sapiens, JEKo1 cells. On the procedure:
as §1, §2

A short description of series [5]: Stability study in buffer solution by HPLC. The format is physicochemical. To be noted: 100 μM in PBS, pH 7.4. On the procedure: Stability studies were performed for exemplary compounds 48 and 15. A 100 μM solution of compound 48 was prepared in buffer (PBS, pH 7.4) and warfarin was used as an internal standard. A sample was injected into a HPLC periodically starting at day 0 and ending at about 6 weeks to find out the stability of compound 48 in PBS solution. […] After 6 weeks, 58% of compound 48 remained in the buffer solution.

Molecules are shown by their SMILES. pIC50: −log10 of the molar value.

Take `CC(/C=C/[C@@H]1C[C@]2(CO2)CC(C)(C)O1)=C\C[C@H]1CC[C@@H](NC(=O)/C=C\[C@H](C)OC(=O)N2CCN(C3CCCCCC3)CC2)CC1` [Compound 24, (S,Z)-5-((1R,4R)-4-((2E,4E)-5-((3R,5S)-7,7-dimethyl-1,6-dioxaspiro[2.5]octan-5-yl)-3-methylpenta-2,4-dienyl)cyclohexylamino)-5-oxopent-3-en-2-yl 4-cycloheptylpiperazine-1-carboxylate]: the figures for the negative-log IC50 (pIC50) in series [1] and in series [2] were less than 6.30 and less than 6.00, respectively.
`CC(/C=C/[C@@H]1C[C@]2(CO2)CC(C)(C)O1)=C\C[C@H]1CC[C@@H](NC(=O)/C=C\[C@H](C)OC(=O)N2CCN(C)CC2)CC1` [Compound 26, (S,Z)-5-((1R,4R)-4-((2E,4E)-5-((3R,5S)-7,7-dimethyl-1,6-dioxaspiro[2.5]octan-5-yl)-3-methylpenta-2,4-dienyl)cyclohexylamino)-5-oxopent-3-en-2-yl 4-methylpiperazine-1-carboxylate]: the pIC50 – broadly, the negative decadic logarithm of the IC50, by convention in mol/L – in series [3] is less than 6.30; in series [4] it was less than 6.30; in series [1], less than 5.60; in series [2], less than 6.30.
For the molecule `CC(/C=C/[C@@H]1C[C@]2(CO2)CC(C)(C)O1)=C\C[C@H]1CC[C@@H](NC(=O)/C=C\[C@H](C)OC(=O)c2cccn2C)CC1` [Compound 19, (S,Z)-5-((1R,4R)-4-((2E,4E)-5-((3R,5S)-7,7-Dimethyl-1,6-dioxaspiro[2.5]octan-5-yl)-3-methylpenta-2,4-dienyl)cyclohexylamino)-5-oxopent-3-en-2-yl 1-methyl-1H-pyrrole-2-carboxylate], the pIC50 in series [4] is 6.41; in series [1], 5.37.
Taken in the same sequence, the figures for `CC(/C=C/[C@@H]1C[C@]2(CO2)CC(C)(C)O1)=C\C[C@H]1CC[C@@H](NC(=O)/C=C\[C@H](C)OC(=O)C2CCN(C)CC2)CC1` [Compound 16, (S,Z)-5-((1R,4R)-4-((2E,4E)-5-((3R,5S)-7,7-dimethyl-1,6-dioxaspiro[2.5]octan-5-yl)-3-methylpenta-2,4-dienyl)cyclohexylamino)-5-oxopent-3-en-2-yl 1-methylpiperidine-4-carboxylate] were less than 6.00 and 5.00.
Taken in the same sequence, the figures for `CC(/C=C/[C@@H]1C[C@]2(CO2)CC(C)(C)O1)=C\C[C@H]1OC[C@@H](NC(=O)/C=C\[C@H](C)OC(=O)C(C)(C)C)CO1` [Compound 49, (S,Z)-5-((2R,5R)-2-((2E,4E)-5-((3R,5S)-7,7-dimethyl-1,6-dioxaspiro[2.5]octan-5-yl)-3-methylpenta-2,4-dienyl)-1,3-dioxan-5-ylamino)-5-oxopent-3-en-2-yl pivalate] were 6.47 and 5.93.
On to `CC(/C=C/[C@H]1OCC[C@@]2(CO2)[C@@H]1O)=C\C[C@H]1CC[C@@H](NC(=O)/C=C\[C@H](C)OC(=O)C(C)C)CC1` [Compound 38, (S,Z)-5-((1S,4R)-4-((2E,4E)-5-((3R,4R,5R)-4-hydroxy-1,6-dioxaspiro[2.5]octan-5-yl)-3-methylpenta-2,4-dienyl)cyclohexylamino)-5-oxopent-3-en-2-yl isobutyrate], for which the pIC50 in series [4] was less than 6.00; in series [1] it was less than 5.00.
Taken in the same sequence, the figures for `CC(/C=C/[C@@H]1C[C@]2(CO2)CC(C)(C)O1)=C\C[C@H]1CC[C@@H](NC(=O)/C=C\[C@H](C)OC(=O)c2cccnc2)CC1` [Compound 21, (S,Z)-5-((1R,4R)-4-((2E,4E)-5-((3R,5S)-7,7-dimethyl-1,6-dioxaspiro[2.5]octan-5-yl)-3-methylpenta-2,4-dienyl)cyclohexylamino)-5-oxopent-3-en-2-yl nicotinate] were 6.80 and 5.09.
Taken in the same sequence, the figures for `CC(=O)O[C@@H](C)CCC(=O)N[C@H]1CO[C@@H](C/C=C(C)/C=C/[C@@H]2C[C@]3(CO3)CC(C)(C)O2)OC1` [Compound 53, (S)-5-((2R,5R)-2-((2E,4E)-5-((3R,5S)-7,7-dimethyl-1,6-dioxaspiro[2.5]octan-5-yl)-3-methylpenta-2,4-dienyl)-1,3-dioxan-5-ylamino)-5-oxopentan-2-yl acetate] were less than 6.00 and less than 5.00.
For `CC(/C=C/[C@@H]1C[C@]2(CO2)CC(C)(C)O1)=C\C[C@H]1CC[C@@H](NC(=O)/C=C\[C@H](C)OC(=O)C2CCN(c3ccnc(C(F)(F)F)n3)CC2)CC1` [Compound 22, (S,Z)-5-((1R,4R)-4-((2E,4E)-5-((3R,5S)-7,7-dimethyl-1,6-dioxaspiro[2.5]octan-5-yl)-3-methylpenta-2,4-dienyl)cyclohexylamino)-5-oxopent-3-en-2-yl 1-(2-(trifluoromethyl)pyrimidin-4-yl)piperidine-4-carboxylate], the pIC50 in series [4] was less than 6.00; in series [1], less than 5.00.
Taken in the same sequence, the figures for `CC(/C=C/[C@@H]1C[C@]2(CO2)CC(C)(C)O1)=C\C[C@H]1CC[C@@H](NC(=O)/C=C\[C@H](C)OC(=O)c2ccco2)CC1` [Compound 18, (S,Z)-5-((1R,4R)-4-((2E,4E)-5-((3R,5S)-7,7-dimethyl-1,6-dioxaspiro[2.5]octan-5-yl)-3-methylpenta-2,4-dienyl)cyclohexylamino)-5-oxopent-3-en-2-yl furan-2-carboxylate] were 6.85 and 5.46.
`CC(/C=C/[C@@H]1C[C@]2(CO2)CC(C)(C)O1)=C\C[C@H]1CC[C@@H](NC(=O)/C=C\[C@H](C)OC(=O)N2CCN(CCO)CC2)CC1` [Compound 27, (S,Z)-5-((1R,4R)-4-((2E,4E)-5-((3R,5S)-7,7-dimethyl-1,6-dioxaspiro[2.5]octan-5-yl)-3-methylpenta-2,4-dienyl)cyclohexylamino)-5-oxopent-3-en-2-yl 4-(2-hydroxyethyl)piperazine-1-carboxylate]: the pIC50 is less than 5.90 in series [3], less than 6.30 in series [4], less than 5.60 in series [1] and less than 6.30 in series [2].
Consider `CC(/C=C/[C@@H]1C[C@]2(CO2)CC(C)(C)O1)=C\C[C@H]1CC[C@@H](NC(=O)/C=C\[C@H](C)OC(=O)C(C)(C)C)CC1` [Compound 23, (S,Z)-5-((1R,4R)-4-((2E,4E)-5-((3R,5S)-7,7-dimethyl-1,6-dioxaspiro[2.5]octan-5-yl)-3-methylpenta-2,4-dienyl)cyclohexylamino)-5-oxopent-3-en-2-yl pivalate], for which the pIC50 in series [4] was 7.52; in series [1], 6.12.
Take `CC(/C=C/[C@@H]1C[C@](O)(CCl)CC(C)(C)O1)=C\C[C@H]1CC[C@@H](NC(=O)/C=C\[C@H](C)OC(=O)N2CCN(C3CCCCCC3)CC2)CC1` [Compound 28, (S,Z)-5-((1R,4R)-4-((2E,4E)-5-((2S,4R)-4-(chloromethyl)-4-hydroxy-6,6-dimethyltetrahydro-2H-pyran-2-yl)-3-methylpenta-2,4-dienyl)cyclohexylamino)-5-oxopent-3-en-2-yl 4-cycloheptylpiperazine-1-carboxylate]: the pIC50 in series [3] is less than 5.90; in series [1] it was less than 5.30; in series [2], less than 5.00.
As for `CC(/C=C/[C@@H]1C[C@]2(CO2)CC(C)(C)O1)=C\C[C@H]1CC[C@@H](NC(=O)/C=C\[C@H](C)OC(=O)c2ccccc2)CC1` [Compound 20, (S,Z)-5-((1R,4R)-4-((2E,4E)-5-((3R,5S)-7,7-dimethyl-1,6-dioxaspiro[2.5]octan-5-yl)-3-methylpenta-2,4-dienyl)cyclohexylamino)-5-oxopent-3-en-2-yl benzoate], the pIC50 in series [4] is 6.39; in series [1], 5.31.
Taken in the same sequence, the figures for `CC(/C=C/[C@@H]1C[C@]2(CO2)CC(C)(C)O1)=C\C[C@H]1CC[C@@H](NC(=O)/C=C\[C@H](C)OC(=O)C2CCOCC2)CC1` [Compound 17, (S,Z)-5-((1R,4R)-4-((2E,4E)-5-((3R,5S)-7,7-dimethyl-1,6-dioxaspiro[2.5]octan-5-yl)-3-methylpenta-2,4-dienyl)cyclohexylamino)-5-oxopent-3-en-2-yl tetrahydro-2H-pyran-4-carboxylate] were 6.36 and 5.71.
On to `COc1cccc(N2CCN(C(=O)O[C@@H](C)/C=C\C(=O)N[C@H]3CC[C@@H](C/C=C(C)/C=C/[C@@H]4C[C@]5(CO5)CC(C)(C)O4)CC3)CC2)c1` [Compound 25, (S,Z)-5-((1R,4R)-4-((2E,4E)-5-((3R,5S)-7,7-dimethyl-1,6-dioxaspiro[2.5]octan-5-yl)-3-methylpenta-2,4-dienyl)cyclohexylamino)-5-oxopent-3-en-2-yl 4-(3-methoxyphenyl)piperazine-1-carboxylate], for which the pIC50 in series [3] is less than 5.90; in series [4], less than 6.30; in series [1], less than 5.60; in series [2], less than 6.30.
Take `CC(/C=C/[C@@H]1C[C@]2(CO2)CC(C)(C)O1)=C\C[C@H]1OC[C@@H](NC(=O)/C=C\[C@H](C)OC(=O)C(C)C)CO1` [Compound 48, (S,Z)-5-((2R,5R)-2-((2E,4E)-5-((3R,5S)-7,7-dimethyl-1,6-dioxaspiro[2.5]octan-5-yl)-3-methylpenta-2,4-dienyl)-1,3-dioxan-5-ylamino)-5-oxopent-3-en-2-yl isobutyrate]: the “compound remaining in the buffer solution” value in series [5] (after 6 weeks) stood at 58%. Also, the degradable products result in series [5] (after 1 day) is given as “No degradable products were found”. In addition, in series [5] (PBS buffer, read-out: calculated half life (converted)), the half-life (as a rule, how long it takes for the measured level to halve) at 100 μM is 50.4 days. Also, the pIC50 in series [4] is 6.77; in series [1], 5.28.
